Source: patent US9994564B2, “Myosin II ATPase inhibitor compounds” (priority 2014, dated 2018)
Several values for one entry are separate records, joined by “and”; a condition that tells them apart may be missing. Equal values may be shown once.

Key:
[1] = test system: rat bladder smooth muscle strip (detrusor); assay: Relaxation of rat bladder strips pre-contracted with 60 mM KCl or 1 μM carbachol (organ bath); format: cell-based; conditions: for relaxation of KCl and CC evoked detrusor contraction: 60 mM KCl or 1 μM CC pre-contraction, maximal pre-contraction = 100%; for bladder relaxation in vitro, enantiomer compared with racemic blebbistatin mixture: in vitro studies
Method: (§1) Experimental materials and methods: All chemical were from Sigma (St. Louis, USA) except (±) blebbistatin (racemic blebbistatin) was from Tocris (Ellisville, Mo.). […] Rat bladder body and aorta were obtained from 17 (275-300 gram) adult male Sprague-Dawley (SD) rats (Charles River; Raleigh, N.C.). All animal studies were approved by the Animal Institute Committee of the Albert Einstein College of Medicine.
In vitro organ bath studies: The in vitro contractility studies were performed as previously described by Zhang X, Kuppam D, Aydin M, Melman A, DiSanto M. “In vitro and in vivo relaxation of corpus cavernosum smooth muscle by the selective myosin II inhibitor, blebbistatin.” J Sex Med 2009; 6:2661-71, Sandhu K S, Chua R G, Zhang X, et al. “Regional heterogeneity in expression of the sphingosine-1-phosphate pathway in the female rat lower urinary tract”; Am J Obstet Gynecol 2009; 200:576-7; Chua R G, Calenda G, Zhang X, et al. “Testosterone regulates erectile function and Vcsal expression in the corpora of rats”; Mol Cell Endocrinol 2009; 303:67-73. Bladder strips were mounted longitudinally and aortic rings horizontally in a 5 ml organ bath—Multi-Myograph Model 810MS (bladder) or Model 610M (aorta) (Danish Myo Technology; Aarhus, Denmark). The myograph was connected in line to a PowerLab 4/30 Data Acquisition System (ADInstruments; Colorado Springs, Colo.) and in turn to a Dual-Core processor Pentium computer for real-time monitoring of physiological force. The smooth muscle strips were equilibrated at least 1 hour in Krebs-Henseleit (Krebs) buffer at 37° C. with continuous bubbling of 95% O2 and 5% CO2 and buffer was changed every 15 minutes (min). Strips were continuously adjusted to resting tension (0.5 g for rat bladder and 1 g for human bladder (Yamamoto M, Harm S C, Grasser W A, Thiede M A. “Parathyroid hormone-related protein in the rat urinary bladder: a smooth muscle relaxant produced locally in response to mechanical stretch.” Proc Natl Acad Sci USA 1992; 89:5326-30. After equilibration, rat detrusor was contracted with 60 mM KCl and the force induced by cumulative concentrations (10-5-10-1 M) of carbachol (CC) or electrical field stimulation (EFS) at varying frequencies of 2-32 Hz, pulse duration 1.5 ms, train 5 s, and 80 V, was normalized to that KCl response. Next, all strips were pre-contracted with 60 mM KCl, or 1 μM CC (rat bladder), or 20 nM endothelin-1 (ET-1) (human bladder) and allowed to reach stable tension and then the relaxant effects of increasing doses of blebbistatin were evaluated. For rat detrusor, after pre-incubation with blebbistatin (10 μM) for 30 min, its inhibitory effect on CC (1 μM) induced contractility or aforementioned EFS mediated contractility was also tested. Additionally, the influence of blebbistatin (10 μM) on rat detrusor spontaneous activity and basal tone was evaluated.

[2] = test system: rat bladder smooth muscle strip (detrusor); assay: Pre-incubation with blebbistatin: carbachol-induced rat detrusor contraction; format: cell-based; conditions: for attenuation of carbachol (CC) responsiveness: pre-incubation 10 μM for 30 min, 1 μM CC
Method: as §1
(§2) In vitro organ bath studies: The in vitro contractility studies were performed as previously described by Zhang X, Kuppam D, Aydin M, Melman A, DiSanto M. “In vitro and in vivo relaxation of corpus cavernosum smooth muscle by the selective myosin II inhibitor, blebbistatin.” J Sex Med 2009; 6:2661-71, Sandhu K S, Chua R G, Zhang X, et al. “Regional heterogeneity in expression of the sphingosine-1-phosphate pathway in the female rat lower urinary tract”; Am J Obstet Gynecol 2009; 200:576-7; Chua R G, Calenda G, Zhang X, et al. “Testosterone regulates erectile function and Vcsal expression in the corpora of rats”; Mol Cell Endocrinol 2009; 303:67-73. Bladder strips were mounted longitudinally and aortic rings horizontally in a 5 ml organ bath—Multi-Myograph Model 810MS (bladder) or Model 610M (aorta) (Danish Myo Technology; Aarhus, Denmark). The myograph was connected in line to a PowerLab 4/30 Data Acquisition System (ADInstruments; Colorado Springs, Colo.) and in turn to a Dual-Core processor Pentium computer for real-time monitoring of physiological force. The smooth muscle strips were equilibrated at least 1 hour in Krebs-Henseleit (Krebs) buffer at 37° C. with continuous bubbling of 95% O2 and 5% CO2 and buffer was changed every 15 minutes (min). Strips were continuously adjusted to resting tension (0.5 g for rat bladder and 1 g for human bladder (Yamamoto M, Harm S C, Grasser W A, Thiede M A. “Parathyroid hormone-related protein in the rat urinary bladder: a smooth muscle relaxant produced locally in response to mechanical stretch.” Proc Natl Acad Sci USA 1992; 89:5326-30. After equilibration, rat detrusor was contracted with 60 mM KCl and the force induced by cumulative concentrations (10-5-10-1 M) of carbachol (CC) or electrical field stimulation (EFS) at varying frequencies of 2-32 Hz, pulse duration 1.5 ms, train 5 s, and 80 V, was normalized to that KCl response. Next, all strips were pre-contracted with 60 mM KCl, or 1 μM CC (rat bladder), or 20 nM endothelin-1 (ET-1) (human bladder) and allowed to reach stable tension and then the relaxant effects of increasing doses of blebbistatin were evaluated. […] Additionally, the influence of blebbistatin (10 μM) on rat detrusor spontaneous activity and basal tone was evaluated.

[3] = test system: rat bladder smooth muscle strip (detrusor); assay: Pre-incubation with blebbistatin: electrical field stimulation-induced rat bladder contraction; format: cell-based; conditions: pre-incubation 10 μM for 30 min, 32 Hz
Method: as §1
In vitro organ bath studies: The in vitro contractility studies were performed as previously described by Zhang X, Kuppam D, Aydin M, Melman A, DiSanto M. “In vitro and in vivo relaxation of corpus cavernosum smooth muscle by the selective myosin II inhibitor, blebbistatin.” J Sex Med 2009; 6:2661-71, Sandhu K S, Chua R G, Zhang X, et al. “Regional heterogeneity in expression of the sphingosine-1-phosphate pathway in the female rat lower urinary tract”; Am J Obstet Gynecol 2009; 200:576-7; Chua R G, Calenda G, Zhang X, et al. “Testosterone regulates erectile function and Vcsal expression in the corpora of rats”; Mol Cell Endocrinol 2009; 303:67-73. […] Next, all strips were pre-contracted with 60 mM KCl, or 1 μM CC (rat bladder), or 20 nM endothelin-1 (ET-1) (human bladder) and allowed to reach stable tension and then the relaxant effects of increasing doses of blebbistatin were evaluated. […]

[4] = test system: human bladder smooth muscle strip; assay: Relaxation of human bladder (base) strips pre-contracted with 20 nM endothelin-1; format: cell-based; conditions: for relaxation of human bladder pre-contracted with endothelin-1: 20 nM ET-1; for relaxation/block of endothelin-1 induced human bladder contraction (in words): dose-dependent
Method: as §1, §2

[5] = test system: rat bladder strips; assay: Spontaneous contractions and basal tone of rat bladder strips; format: cell-based
Method: as §1, §2

[6] = test system: bladder of awake rat; assay: Awake rat cystometry (urodynamics) after intravesical blebbistatin; format: in vivo
Method: Cystometric evaluation of bladder function was performed as previously described on a separate set of 5 rats. See Malmgren A, Andersson P O, Uvelius B. “Bladder function in rats with short- and long-term diabetes; effects of age and muscarinic blockade” J Urol 1989; 142:1608-14; Melman A, Zotova E, Kim M, et al. “Longitudinal studies of time-dependent changes in both bladder and erectile function after streptozotocin-induced diabetes in Fischer 344 male rats” BJU Int 2009, 104:1292-300; Suadicani S O, Urban-Maldonado M, Tar M T, Melman A, Spray D C. “Effects of ageing and streptozotocin-induced diabetes on connexin43 and P2 purinoceptor expression in the rat corpora cavernosa and urinary bladder” BJU Int 2009; 103:1686-93. Under anesthesia, a PE 50 catheter with a cuff was surgically inserted into the bladder dome and exited through an orifice made in the back of the animal. […] The bladder catheter was connected to a 2-way valve that is, in turn connected to a pressure transducer as well as an infusion pump (model PHD 2000, Harvard Instruments; MA, USA). Rat bladder was infused with vehicle for 30 min and then cystometry was performed. After that, the same rat was treated with 250 nmols blebbistatin for the same period and cystometry was similarly repeated. One rat had bladder over-activity possibly due to post-surgical infection and thus blebbistatin was kept in the bladder for only about 5 min. The rate of infusion of room temperature saline was set at 10 ml/h. Bladder activity was continuously recorded after the first micturition, and subsequently at least 2 h of data were recorded from each rat. Statistical analysis: Results are expressed as mean±SEM for n experiments. Statistical analysis was performed using either the Student's t-test (when two sample treatments were being compared) or using ANOVA when multiple means were compared. p<0.05 was considered significant.
Bladder function was evaluated using the following urodynamic criteria: bladder capacity: (BC=volume of infused saline discharged at micturition); micturition volume (MV=the volume of urine discharged during micturition); residual volume (RV=volume of infused saline minus micturition volume); basal pressure (BP=the lowest average bladder pressure recorded during cystometry); micturition pressure (MP=peak bladder pressure during micturition); Bcom=bladder compliance; MF=micturition frequency; and the * indicates <0.05 vs vehicle.

[7] = target: Myosin II ATPase in rabbit striated skeletal muscle; conditions: in vitro, read-out: IC50, inhibition of Myosin II ATPase; cited from earlier work
[8] = target: Myosin II ATPase in pig cardiac muscle (Sus scrofa, UniProt P79293); conditions: in vitro, read-out: IC50, inhibition of Myosin II ATPase; cited from earlier work
[9] = target: Smooth Muscle Myosin II ATPase (turkey smooth muscle); conditions: in vitro, read-out: IC50, inhibition of Smooth Muscle Myosin II ATPase; cited from earlier work
[10] = target: Non-muscle Myosin IIA ATPase (Homo sapiens, UniProt P35579); conditions: read-out: IC50, inhibition of Non-muscle Myosin IIA ATPase; cited from earlier work
[11] = test system: adult mouse bladder smooth muscle; conditions: 10 uM; tissue depolarized using potassium chloride; cited from earlier work
[12] = test system: newborn mouse bladder; conditions: 10 uM; cited from earlier work
[13] = target: Porcine Cardiac Muscle Myosin II ATPase (Sus scrofa, UniProt P79293); conditions: single concentration of 100 micromolar; Toth table IV; cited from earlier work
[14] = test system: Non-muscle Myosin ATPases; conditions: single concentration of 100 micromolar; Toth table IV; cited from earlier work
[15] = with blebbistatin (10 μM), n = 15 strips from 6 rats
[16] = awake rats, intravesical 250 nmols blebbistatin 30 min, n = 5

Chain of Non-muscle Myosin IIA ATPase (P35579 whole entry): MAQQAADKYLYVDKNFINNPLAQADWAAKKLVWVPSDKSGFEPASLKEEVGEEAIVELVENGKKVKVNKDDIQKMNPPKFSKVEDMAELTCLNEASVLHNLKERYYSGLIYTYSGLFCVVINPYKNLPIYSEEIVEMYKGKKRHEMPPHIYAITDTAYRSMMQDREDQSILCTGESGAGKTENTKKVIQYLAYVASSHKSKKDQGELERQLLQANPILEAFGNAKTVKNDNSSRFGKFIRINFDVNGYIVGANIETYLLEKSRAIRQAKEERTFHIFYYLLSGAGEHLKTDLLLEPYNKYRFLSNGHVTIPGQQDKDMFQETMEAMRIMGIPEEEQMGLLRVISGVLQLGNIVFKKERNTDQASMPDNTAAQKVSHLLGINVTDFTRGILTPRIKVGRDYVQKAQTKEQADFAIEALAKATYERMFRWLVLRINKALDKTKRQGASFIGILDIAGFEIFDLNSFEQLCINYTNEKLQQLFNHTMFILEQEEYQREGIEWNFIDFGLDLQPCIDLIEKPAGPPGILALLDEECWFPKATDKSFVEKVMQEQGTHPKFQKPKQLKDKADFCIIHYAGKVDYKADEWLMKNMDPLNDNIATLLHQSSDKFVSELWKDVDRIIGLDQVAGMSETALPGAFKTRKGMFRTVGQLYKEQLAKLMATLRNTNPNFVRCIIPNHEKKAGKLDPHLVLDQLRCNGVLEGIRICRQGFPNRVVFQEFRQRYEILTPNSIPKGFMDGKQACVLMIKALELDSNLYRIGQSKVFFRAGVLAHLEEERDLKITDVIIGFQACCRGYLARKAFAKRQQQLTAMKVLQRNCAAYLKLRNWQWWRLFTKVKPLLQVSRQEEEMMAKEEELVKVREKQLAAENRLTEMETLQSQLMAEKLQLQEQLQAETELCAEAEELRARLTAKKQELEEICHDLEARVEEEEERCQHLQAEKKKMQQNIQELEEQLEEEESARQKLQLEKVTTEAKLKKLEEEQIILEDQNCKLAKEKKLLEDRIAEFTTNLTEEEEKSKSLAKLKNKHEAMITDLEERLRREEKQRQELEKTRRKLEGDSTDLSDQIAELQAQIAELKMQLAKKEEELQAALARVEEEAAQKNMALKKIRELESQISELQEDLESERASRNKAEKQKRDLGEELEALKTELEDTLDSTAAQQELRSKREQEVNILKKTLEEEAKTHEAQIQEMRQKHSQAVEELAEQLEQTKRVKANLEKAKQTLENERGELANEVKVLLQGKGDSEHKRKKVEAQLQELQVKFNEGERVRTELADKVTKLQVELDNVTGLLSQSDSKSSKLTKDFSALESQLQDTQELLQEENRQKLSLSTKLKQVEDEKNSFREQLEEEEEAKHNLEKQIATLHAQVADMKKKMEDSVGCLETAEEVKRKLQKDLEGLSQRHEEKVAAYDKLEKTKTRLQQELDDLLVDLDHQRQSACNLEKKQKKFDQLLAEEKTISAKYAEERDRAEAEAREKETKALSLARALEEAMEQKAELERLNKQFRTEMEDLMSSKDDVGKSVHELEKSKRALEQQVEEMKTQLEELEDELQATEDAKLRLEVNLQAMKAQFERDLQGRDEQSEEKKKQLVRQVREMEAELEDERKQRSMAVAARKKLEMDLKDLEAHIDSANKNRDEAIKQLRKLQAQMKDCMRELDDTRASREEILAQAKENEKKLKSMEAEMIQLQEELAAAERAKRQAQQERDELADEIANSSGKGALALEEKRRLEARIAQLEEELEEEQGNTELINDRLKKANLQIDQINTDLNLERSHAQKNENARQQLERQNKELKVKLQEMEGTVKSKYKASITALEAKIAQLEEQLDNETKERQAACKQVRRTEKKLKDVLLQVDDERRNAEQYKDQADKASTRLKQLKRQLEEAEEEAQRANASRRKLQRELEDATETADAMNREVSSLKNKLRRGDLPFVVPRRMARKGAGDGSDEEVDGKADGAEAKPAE
Chain of Non-muscle Myosin IIA ATPase (P60660 whole entry partner): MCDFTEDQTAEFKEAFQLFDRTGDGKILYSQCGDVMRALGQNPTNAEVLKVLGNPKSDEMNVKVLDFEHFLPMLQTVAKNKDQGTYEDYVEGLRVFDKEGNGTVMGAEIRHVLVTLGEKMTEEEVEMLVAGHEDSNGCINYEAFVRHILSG
Chain of Non-muscle Myosin IIA ATPase (O14950 whole entry partner): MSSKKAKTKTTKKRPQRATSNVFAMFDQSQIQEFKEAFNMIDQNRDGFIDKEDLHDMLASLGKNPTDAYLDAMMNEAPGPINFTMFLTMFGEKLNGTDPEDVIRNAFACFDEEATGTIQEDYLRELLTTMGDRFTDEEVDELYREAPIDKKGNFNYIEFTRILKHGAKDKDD
Chain of Porcine Cardiac Muscle Myosin II ATPase (P79293 whole entry): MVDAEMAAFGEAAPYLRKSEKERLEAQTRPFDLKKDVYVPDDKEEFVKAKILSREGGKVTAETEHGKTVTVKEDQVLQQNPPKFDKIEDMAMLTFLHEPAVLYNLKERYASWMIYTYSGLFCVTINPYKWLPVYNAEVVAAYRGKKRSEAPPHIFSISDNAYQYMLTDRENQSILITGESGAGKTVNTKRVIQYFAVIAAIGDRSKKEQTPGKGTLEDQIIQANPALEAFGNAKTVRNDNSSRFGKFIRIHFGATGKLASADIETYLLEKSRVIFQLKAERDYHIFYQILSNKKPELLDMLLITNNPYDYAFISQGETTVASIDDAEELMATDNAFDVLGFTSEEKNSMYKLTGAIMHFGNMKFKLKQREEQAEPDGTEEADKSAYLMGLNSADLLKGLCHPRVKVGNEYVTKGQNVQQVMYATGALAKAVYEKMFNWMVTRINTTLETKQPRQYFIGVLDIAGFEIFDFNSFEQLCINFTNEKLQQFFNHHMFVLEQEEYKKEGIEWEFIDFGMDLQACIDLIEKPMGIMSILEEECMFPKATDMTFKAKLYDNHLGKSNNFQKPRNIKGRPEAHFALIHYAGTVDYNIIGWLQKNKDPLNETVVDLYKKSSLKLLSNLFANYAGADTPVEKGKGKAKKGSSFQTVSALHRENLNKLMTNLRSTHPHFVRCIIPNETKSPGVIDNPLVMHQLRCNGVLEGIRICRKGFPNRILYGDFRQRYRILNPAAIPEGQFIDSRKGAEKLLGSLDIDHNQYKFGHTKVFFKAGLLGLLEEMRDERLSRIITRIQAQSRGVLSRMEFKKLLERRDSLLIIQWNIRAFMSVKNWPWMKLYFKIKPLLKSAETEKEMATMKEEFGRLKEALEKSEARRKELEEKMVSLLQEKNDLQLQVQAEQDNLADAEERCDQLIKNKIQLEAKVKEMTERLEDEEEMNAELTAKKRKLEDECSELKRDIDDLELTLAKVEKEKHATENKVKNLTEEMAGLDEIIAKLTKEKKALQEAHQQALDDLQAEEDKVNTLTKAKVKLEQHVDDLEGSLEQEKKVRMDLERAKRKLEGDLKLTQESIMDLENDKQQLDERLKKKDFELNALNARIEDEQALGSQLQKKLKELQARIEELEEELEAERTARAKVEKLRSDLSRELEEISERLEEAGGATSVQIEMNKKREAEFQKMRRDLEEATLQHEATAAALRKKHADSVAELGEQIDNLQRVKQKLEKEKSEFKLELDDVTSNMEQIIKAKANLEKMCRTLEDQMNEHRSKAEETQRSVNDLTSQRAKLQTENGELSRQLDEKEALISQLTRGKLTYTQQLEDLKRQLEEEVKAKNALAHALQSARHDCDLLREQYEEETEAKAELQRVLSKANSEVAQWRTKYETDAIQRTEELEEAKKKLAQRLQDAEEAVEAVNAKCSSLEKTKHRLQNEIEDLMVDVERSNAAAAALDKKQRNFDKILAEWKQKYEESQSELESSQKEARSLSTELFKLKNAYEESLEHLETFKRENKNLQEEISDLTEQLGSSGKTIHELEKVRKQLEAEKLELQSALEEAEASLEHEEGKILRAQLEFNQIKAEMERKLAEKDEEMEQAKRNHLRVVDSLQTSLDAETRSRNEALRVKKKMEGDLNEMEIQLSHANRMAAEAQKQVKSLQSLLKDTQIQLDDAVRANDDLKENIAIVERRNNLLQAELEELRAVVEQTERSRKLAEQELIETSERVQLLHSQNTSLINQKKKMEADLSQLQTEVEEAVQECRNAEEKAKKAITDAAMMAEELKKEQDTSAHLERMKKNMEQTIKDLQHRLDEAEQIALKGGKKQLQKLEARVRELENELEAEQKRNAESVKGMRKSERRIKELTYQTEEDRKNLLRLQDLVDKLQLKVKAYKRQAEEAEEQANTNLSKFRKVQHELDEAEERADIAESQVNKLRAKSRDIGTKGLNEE
Chain of Myosin II ATPase in pig cardiac muscle (P79293 whole entry): as above

In the case of `Cc1ccc2c(c1)C(=O)C1(O)CCN(c3ccccc3)C1=N2` (racemic) [blebbistatin, 3a-hydroxy-6-methyl-1-phenyl-1,2,3,3a-tetrahydro-4H-pyrrolo[2,3b]-quinolin-4-one], the “time needed to relax the muscle strip in vitro in a tissue bath” value [1] is reported as 30 to 60 min, the “baseline and peak phasic force of contraction (FIG. 3)” value ([1]; 10 uM, strip pre-contracted with 1 uM carbacol) is reported as “significant decrease” and the “relaxation of KCl and CC evoked detrusor contraction” value ([1]; 1 μm) is reported as 20-30%. The “relaxation of KCl and CC evoked detrusor contraction” value ([1]; 5 μm) was 80-100%, the “relaxation of KCl and carbachol induced rat detrusor contraction (in words)” value ([1]; dose-dependent, 1-10 μM cumulative) was “completely relaxed” and the “attenuation of carbachol (CC) responsiveness” value (“attenuation of carbachol” for short) [2] was “about 65%”. For the same compound, the “attenuation of carbachol” value ([2]; listed as BLEB) was “about 65%”, the “attenuation of carbachol” value ([2]; listed as racemic blebbistatin) was roughly 65% and the “lowering of basal tone” value ([2]; pre-incubation 10 μm for 30 min) was “around 300 mg”. For the same compound, the “inhibition of EFS-induced bladder contraction” value [3] was “about 50%”, the “inhibition of EFS-induced bladder contraction” value ([3]; listed as racemic blebbistatin) was 50% and the “relaxation of human bladder pre-contracted with endothelin-1” value ([4]; 1 μM) was 60%. The “relaxation of human bladder pre-contracted with endothelin-1” value ([4]; 3 am (so in the source)) was roughly 100%, the “relaxation/block of endothelin-1 induced human bladder contraction (in words)” value [4] was “completely blocked” and the “relaxation/block of endothelin-1 induced human bladder contraction (in words)” value ([4]; listed as Racemic blebbistatin) was “completely relaxed”. The “decrease in the amplitude of spontaneous smooth muscle contractions” value ([5]; 10 am (so in the source)) was roughly 60%, the “Amplitude of spontaneous contractions” value [5, 15] was 118 ± 19.33 mg and 120 ± 19 mg and the “Basal Tone” value [5, 15] was 310 ± 16 mg. For the same compound, the “Frequency of spontaneous contractions” value [5, 15] was 5.5 +/− 1.2 cycles/min, the “BC (bladder capacity)” value [6, 16] was 1.4 +/− 0.16 * ml and the “BP (basal pressure)” value [6, 16] was 6.9 +/− 1.8 cm H20. For the same compound, the “MF (micturition frequency)” value [6, 16] was 7.2 +/− 1.3 *, the “MP (micturition pressure)” value [6, 16] was 42 +/− 13 cmH20 and the “MV (micturition volume)” value [6, 16] was 1.4 +/− 10 * ml. For the same compound, the “RV (residual volume)” value [6, 16] was 0.03 ± 0.01 mL, the “decline of voiding frequency” value ([6]; rat with overactive bladder (OAB), blebbistatin kept in bladder about 5 min) was “over 50%” and the IC50 [7] was 0.5 µM. The IC50 [8] was 1.2 µM, the IC50 [9] was 79.6 µM and the IC50 [10] was 5.1 µM. For the same compound, the “block of adult mouse bladder smooth muscle contraction” value [11] was “did not block” and the “inhibition of bladder contraction of a newborn mouse” value [12] was “did inhibit”.
With `Cc1ccc2c(c1)C(=O)C1(O)CCN(c3ccccc3)C1=N2` (single isomer, unassigned; (+)) [(+)-blebbistatin] the “bladder relaxation in vitro, enantiomer compared with racemic blebbistatin mixture” value [1] was “did not induce significant bladder relaxation”.
For `Cc1ccc2c(c1)C(=O)[C@]1(O)CCN(c3ccccc3)C1=N2` [(−)-blebbistatin, (−)-3aS-hydroxy-6-methyl-1-phenyl-1,2,3,3a-tetrahydro-4H-pyrrolo[2,3b] quinolin-4-one], the “bladder relaxation in vitro, enantiomer compared with racemic blebbistatin mixture” value [1] is given as “equipotent”, the “inhibition of cardiac muscle Myosin ATPase” value [13] is given as “inhibited” and the “inhibition of Non-muscle Myosin ATPases” value [14] is given as “inhibited”.
With `CN1[C@@H]2CC[C@H]1C[C@@H](OC(=O)C(CO)c1ccccc1)C2` (stereo partly shown) [atropine] the “time needed to relax the muscle strip in vitro in a tissue bath” value [1] was 3 to 5 min.
